Assay results reported in ChEMBL document CHEMBL1287809, “Ixorapeptide I and ixorapeptide II, bioactive peptides isolated from Ixora coccinea” (Bioorg Med Chem Lett, 2010).
Converted amounts (≈) assume the structure as drawn. Where a SMILES comes first, the peptide text is derived from it. The star is where a group is joined. Fmoc = O=C(OCC1c2ccccc2-c2ccccc21)*

How the values were obtained:
[1] = Antiinflammatory activity in human neutrophils assessed as inhibition of FMLP/CB-induced elastase release at 10 ug/ml; assay type: functional; conditions: Neutrophil
[2] = Antiinflammatory activity in human neutrophils assessed as inhibition of FMLP/CB-induced superoxide anion release; assay type: functional, cell-based; conditions: Neutrophil
[3] = Antiinflammatory activity in human neutrophils assessed as inhibition of FMLP/CB-induced superoxide anion release at 10 ug/ml; assay type: functional; conditions: Neutrophil
[4] = Antiaggregatory activity in human platelets assessed as inhibition of thrombin-induced platelet aggregation by aggregometry; assay type: functional, cell-based
[5] = Antiaggregatory activity in human platelets assessed as inhibition of collagen-induced platelet aggregation by aggregometry; assay type: functional, cell-based
[6] = Antiinflammatory activity in human neutrophils assessed as inhibition of FMLP/CB-induced elastase release; assay type: functional, cell-based, Neutrophil; conditions: for IC50: Homo sapiens, Neutrophil
[7] = tested on: A549; test: Cytotoxicity against human A549 cells by MTT assay; assay type: functional, cell-based
[8] = tested on: MCF7; test: Cytotoxicity against human MCF7 cells by MTT assay; assay type: functional, cell-based
[9] = tested on: MDA-MB-231; test: Cytotoxicity against human MDA-MB-231 cells by MTT assay; assay type: functional, cell-based
[10] = Cytotoxicity against human Hep3B cells by MTT assay; assay type: functional, cell-based, Hep 3B2
[11] = tested on: HepG2; test: Cytotoxicity against human HepG2 cells by MTT assay; assay type: functional, cell-based
[12] = tested on: Ca9-22; test: Cytotoxicity against human Ca9-22 cells by MTT assay; assay type: functional, cell-based
[13] = Antiinflammatory activity in human Neutrophil assessed as inhibition of superoxide anion release at 10 ug/ml; assay type: functional, cell-based
[14] = Antiinflammatory activity in human Neutrophil assessed as inhibition of elastase release at 10 ug/ml; assay type: functional, cell-based
[15] = tested on: Neutrophil; test: Ratio of compound IC50 to PMSF IC50 for antiinflammatory activity in human neutrophils assessed as inhibition of FMLP/CB-induced elastase release; assay type: functional

Row | SMILES | IC50 [4] | IC50 [5] | IC50 [7] | IC50 [9] | IC50 [10] | IC50 [11] | IC50 [12] | other results
1 | CCCCCCCCCCCCCCCCCCCC(=O)OCC(O)CO (centres undefined) | – | – | – | – | – | – | – | inhibition at 10 µg/mL [1]: 41.8%; IC50 [2]: 2.47 µg/mL (≈ 6.39 µM)
2 | CC(=O)OC[C@]1(C)CCC[C@]2(C)[C@@H]1CC[C@]13C[C@H](CC[C@H]12)[C@@H](C(=O)O)C3 | – | – | – | – | – | – | – | inhibition at 10 µg/mL [1]: 44.7%; IC50 [2]: 5.11 µg/mL (≈ 14.1 µM)
3 | C[C@@]1(CO)CCC[C@]2(C)[C@@H]1CC[C@]13C[C@H](CC[C@H]12)[C@@H](C(=O)O)C3 | – | – | – | – | – | – | – | inhibition at 10 µg/mL [1]: 15.6%; inhibition at 10 µg/mL [3]: 31.8%
4 | C[C@H]1O[C@H](Oc2cc(O)c3c(=O)c(O)c(-c4ccc(O)cc4)oc3c2)[C@@H](O)[C@@H](O)[C@@H]1O | > 50 µg/mL | 34.8 µg/mL (≈ 80.4 µM) | – | – | – | – | – | –
5 | Oc1ccc([C@]23Oc4cc(O)cc(O)c4[C@H](c4c(cc(O)c5c4O[C@@H](c4ccc(O)c(O)c4)[C@@H](O)C5)O2)[C@H]3O)cc1 | – | – | – | – | – | – | – | inhibition (INH) [6]: 2.5%
6 | Oc1cc(O)c2c(c1)O[C@H](c1ccc(O)c(O)c1)[C@H](O)C2 [(-)-EPICATECHIN] | > 50 µg/mL | 22.2 µg/mL (≈ 76.5 µM) | – | – | – | – | – | –
7 | CC(=O)Oc1ccccc1C(=O)O [ASPIRIN] | > 50 µg/mL | 13.6 µg/mL (≈ 75.4 µM) | – | – | – | – | – | –
8 | C=C(C)[C@@H]1CC[C@]2(C(=O)O)CC[C@]3(C)[C@H](CC[C@@H]4[C@@]5(C)CCC(=O)C(C)(C)[C@@H]5CC[C@]43C)[C@@H]12 [BETUNOLIC ACID] | > 50 µg/mL | 44.7 µg/mL (≈ 98.3 µM) | 8.93 µg/mL (≈ 19.6 µM) | > 20 µg/mL | 13.8 µg/mL (≈ 30.4 µM) | 4.32 µg/mL (≈ 9.5 µM) | 14.5 µg/mL (≈ 31.8 µM) | IC50 [8]: 19.3 µg/mL (≈ 42.5 µM); IC50 [13]: 16.8 µg/mL (≈ 36.9 µM); IC50 [14]: 128 µg/mL (≈ 281 µM)
9 | Oc1cc(O)c2c(c1)O[C@H](c1ccc(O)c(O)c1)[C@@H](O)C2 [CIANIDANOL] | > 50 µg/mL | 27.6 µg/mL (≈ 95.3 µM) | – | – | – | – | – | –
10 | c1ccc2c(c1)[I+]c1ccccc1-2 [DIPHENYLENEIODONIUM] | – | – | – | – | – | – | – | IC50 [2]: 0.35 µg/mL
11 | COc1cccc2c1C(=O)c1c(O)c3c(c(O)c1C2=O)C[C@@](O)(C(=O)CO)C[C@@H]3O[C@H]1C[C@H](N)[C@H](O)[C@H](C)O1 [DOXORUBICIN] | – | – | 0.63 µg/mL (≈ 1.16 µM) | 1.32 µg/mL (≈ 2.43 µM) | 0.42 µg/mL (≈ 0.773 µM) | 0.23 µg/mL (≈ 0.423 µM) | 14.5 µg/mL (≈ 26.6 µM) | –
12 | CC[C@H](C)[C@H](NC(=O)C(NC(=O)[C@H](Cc1ccccc1)N(C)C)C(C(C)C)n1ccc2ccccc21)C(=O)O (some centres undefined) [IXORAPEPTIDE II] | – | – | – | – | – | – | – | Ratio IC50 [15]: 73; IC50 [6]: 0.27 µg/mL (≈ 0.505 µM); IC50 [2]: 0.21 µg/mL (≈ 0.393 µM)
13 | COC(=O)[C@H](Cc1ccccc1)NC(=O)[C@@H](NC(=O)OCC1c2ccccc2-c2ccccc21)C(C)C [IXORAPEPTIDE I] (Fmoc-Val-Phe-OMe) | 20.5 µg/mL (≈ 41 µM) | 29.5 µg/mL (≈ 59 µM) | > 20 µg/mL | > 20 µg/mL | 3.36 µg/mL (≈ 6.71 µM) | > 20 µg/mL | 20 µg/mL (≈ 40 µM) | IC50 [8]: > 20 µg/mL
14 | C[C@@H]1O[C@@H](Oc2cc(O)c3c(=O)c(O[C@@H]4O[C@@H](C)[C@H](O)[C@@H](O)[C@H]4O)c(-c4ccc(O)cc4)oc3c2)[C@H](O)[C@H](O)[C@H]1O [KAEMPFERITRIN] | – | – | – | – | – | – | – | inhibition at 10 µg/mL [1]: 12.5%; inhibition at 10 µg/mL [3]: 8.27%
15 | O=c1c(O)c(-c2ccc(O)cc2)oc2cc(O)cc(O)c12 [KAEMPFEROL] | > 50 µg/mL | 3.55 µg/mL (≈ 12.4 µM) | > 20 µg/mL | > 20 µg/mL | 17.7 µg/mL (≈ 62 µM) | > 20 µg/mL | > 20 µg/mL | IC50 [8]: > 20 µg/mL
16 | C=C(C)[C@@H]1CC[C@]2(C)CC[C@]3(C)[C@H](CC[C@@H]4[C@@]5(C)CC[C@H](O)C(C)(C)[C@@H]5CC[C@]43C)[C@@H]12 [LUPEOL] | – | – | > 20 µg/mL | > 20 µg/mL | 18.8 µg/mL (≈ 44.1 µM) | 19.8 µg/mL (≈ 46.4 µM) | 16.8 µg/mL (≈ 39.3 µM) | IC50 [8]: > 20 µg/mL
17 | O=c1cc(-c2ccc(O)c(O)c2)oc2cc(O)cc(O)c12 [LUTEOLIN] | > 50 µg/mL | 2.56 µg/mL (≈ 8.94 µM) | 10.2 µg/mL (≈ 35.7 µM) | 9.65 µg/mL (≈ 33.7 µM) | 8.03 µg/mL (≈ 28.1 µM) | 7.36 µg/mL (≈ 25.7 µM) | 8.55 µg/mL (≈ 29.9 µM) | IC50 [8]: 9.5 µg/mL (≈ 33.2 µM)
18 | CC1(C)CC[C@]2(C(=O)O)CC[C@]3(C)C(=CC[C@@H]4[C@@]5(C)CCC(=O)C(C)(C)[C@@H]5CC[C@]43C)[C@@H]2C1 [OLEANONIC ACID] | – | – | > 20 µg/mL | > 20 µg/mL | > 20 µg/mL | > 20 µg/mL | 18 µg/mL (≈ 39.7 µM) | IC50 [8]: > 20 µg/mL
19 | O=S(=O)(F)Cc1ccccc1 [PHENYLMETHYLSULFONYLFLUORIDE] | – | – | – | – | – | – | – | IC50 [6]: 19.9 µg/mL (≈ 114 µM)
20 | COc1cc2ccc(=O)oc2cc1O [SCOPOLETIN] | > 50 µg/mL | 41.7 µg/mL (≈ 217 µM) | – | – | – | – | – | –
21 | C[C@H]1[C@H](C)CC[C@]2(C(=O)O)CC[C@]3(C)C(=CC[C@@H]4[C@@]5(C)CC[C@H](O)C(C)(C)[C@@H]5CC[C@]43C)[C@H]12 [URSOLIC ACID] | > 50 µg/mL | 34.5 µg/mL (≈ 75.6 µM) | – | – | – | – | – | IC50 [6]: 0.31 µg/mL (≈ 0.679 µM); IC50 [2]: 0.29 µg/mL (≈ 0.635 µM)
